Measurements published in US8148391B2 (Cephalon, Inc., priority 2006, dated 2012).
Like-named read-outs stand apart in the source and are kept apart here.

Key:
[1] = molecular target: T1, c-Met (cytoplasmic domain) (Homo sapiens, UniProt P08581); assay: c-Met Kinase Assay (same methods as for ALK, with modifications); assay type: biochemical
T1 construct: 10 ng/mL c-Met (cytoplasmic domain, Invitrogen Corporation #PV3143); purchased Invitrogen Corporation PV3143
How it was run: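 Wells were coated with 10 μg/mL phospholipase C-γ substrate in TBS, and reactions were started with 10 ng/mL c-Met cytoplasmic domain and run at 37° C for 15 minutes. Phosphorylated product was detected with Eu-N1-labeled PT66 antibody. IC50 values came from sigmoidal variable-slope fits of percent inhibition versus log compound concentration.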

[2] = molecular target: T2, baculovirus-expressed ALK (Homo sapiens, UniProt Q9UM73); assay: ALK Kinase Assay (ELISA-type, time-resolved fluorescence); assay type: biochemical
T2 construct: host or cells: baculovirus expression system
T2 sequence (Q9UM73 19-1620): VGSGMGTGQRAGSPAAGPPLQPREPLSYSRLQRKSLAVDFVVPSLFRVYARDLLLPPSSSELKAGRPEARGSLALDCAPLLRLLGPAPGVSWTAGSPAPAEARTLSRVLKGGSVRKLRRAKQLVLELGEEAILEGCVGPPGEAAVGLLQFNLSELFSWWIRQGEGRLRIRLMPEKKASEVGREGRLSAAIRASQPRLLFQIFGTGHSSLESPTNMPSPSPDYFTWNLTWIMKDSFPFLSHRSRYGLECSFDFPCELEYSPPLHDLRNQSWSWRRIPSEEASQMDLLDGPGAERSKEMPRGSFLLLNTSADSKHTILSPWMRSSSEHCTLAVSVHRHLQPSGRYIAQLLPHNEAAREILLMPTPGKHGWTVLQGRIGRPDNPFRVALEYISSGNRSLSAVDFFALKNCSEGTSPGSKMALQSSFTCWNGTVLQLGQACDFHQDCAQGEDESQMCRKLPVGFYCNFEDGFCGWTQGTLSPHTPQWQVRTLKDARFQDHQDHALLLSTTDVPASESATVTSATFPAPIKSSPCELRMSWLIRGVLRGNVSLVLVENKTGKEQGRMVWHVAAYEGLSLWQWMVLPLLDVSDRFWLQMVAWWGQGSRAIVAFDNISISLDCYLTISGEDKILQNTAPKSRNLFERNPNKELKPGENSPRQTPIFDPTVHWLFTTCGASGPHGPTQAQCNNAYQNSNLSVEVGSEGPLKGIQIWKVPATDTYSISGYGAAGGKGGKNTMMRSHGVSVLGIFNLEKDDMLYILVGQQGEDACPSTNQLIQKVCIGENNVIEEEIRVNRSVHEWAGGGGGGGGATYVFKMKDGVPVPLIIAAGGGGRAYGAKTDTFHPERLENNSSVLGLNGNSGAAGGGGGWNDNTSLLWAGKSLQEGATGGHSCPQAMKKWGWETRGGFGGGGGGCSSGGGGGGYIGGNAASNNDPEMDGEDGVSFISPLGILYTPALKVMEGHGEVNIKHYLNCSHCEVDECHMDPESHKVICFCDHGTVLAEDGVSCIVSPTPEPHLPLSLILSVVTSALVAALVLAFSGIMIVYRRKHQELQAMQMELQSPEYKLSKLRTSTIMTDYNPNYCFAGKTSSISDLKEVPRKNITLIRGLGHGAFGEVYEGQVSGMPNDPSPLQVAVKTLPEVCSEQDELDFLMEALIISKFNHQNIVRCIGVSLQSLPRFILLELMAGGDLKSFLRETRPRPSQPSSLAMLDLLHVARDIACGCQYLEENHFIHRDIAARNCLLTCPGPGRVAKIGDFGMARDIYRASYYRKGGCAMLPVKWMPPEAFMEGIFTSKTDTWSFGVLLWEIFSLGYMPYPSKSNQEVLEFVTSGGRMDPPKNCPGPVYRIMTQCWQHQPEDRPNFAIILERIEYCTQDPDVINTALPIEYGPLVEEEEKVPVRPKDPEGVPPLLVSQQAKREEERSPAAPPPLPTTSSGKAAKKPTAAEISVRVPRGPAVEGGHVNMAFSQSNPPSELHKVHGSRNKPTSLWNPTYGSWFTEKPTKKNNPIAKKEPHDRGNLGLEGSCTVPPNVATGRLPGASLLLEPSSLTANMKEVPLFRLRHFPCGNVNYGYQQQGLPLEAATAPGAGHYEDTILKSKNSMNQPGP
How it was run: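 Substrate coating: phospholipase C-γ, 10 μg/mL in TBS. Kinase step: 30 ng/ml ALK, 15 min, 37° C. Detection and analysis: Eu-N1 PT66 antibody, with IC50 fitted as a sigmoidal variable-slope dose-response curve.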

[3] = c-Met kinase inhibition, 1 μM ATP (Km level), read-out: cMet Activity
[4] = ALK kinase inhibition, 1 μM ATP (Km level), read-out: ALK Activity
[5] = 1 μM ATP (Km level), 10 ng/mL c-Met, read-out: cMet Activity (c-Met kinase inhibition, IC50 class)
[6] = 1 μM ATP (Km level), 30 ng/ml ALK, 37° C., 15 minutes, read-out: ALK Activity (ALK kinase inhibition, IC50 class)
[7] = 1 μM ATP (Km level), read-out: cMet Activity (c-Met Kinase Inhibition, IC50)
[8] = 1 μM ATP (Km level), read-out: ALK Activity (ALK Kinase Inhibition, IC50)
[9] = c-Met kinase inhibition, 1 μM ATP, read-out: cMet Activity
[10] = ALK kinase inhibition, 1 μM ATP, read-out: ALK Activity

T1 sequence (P08581 956-1390 limits assumed): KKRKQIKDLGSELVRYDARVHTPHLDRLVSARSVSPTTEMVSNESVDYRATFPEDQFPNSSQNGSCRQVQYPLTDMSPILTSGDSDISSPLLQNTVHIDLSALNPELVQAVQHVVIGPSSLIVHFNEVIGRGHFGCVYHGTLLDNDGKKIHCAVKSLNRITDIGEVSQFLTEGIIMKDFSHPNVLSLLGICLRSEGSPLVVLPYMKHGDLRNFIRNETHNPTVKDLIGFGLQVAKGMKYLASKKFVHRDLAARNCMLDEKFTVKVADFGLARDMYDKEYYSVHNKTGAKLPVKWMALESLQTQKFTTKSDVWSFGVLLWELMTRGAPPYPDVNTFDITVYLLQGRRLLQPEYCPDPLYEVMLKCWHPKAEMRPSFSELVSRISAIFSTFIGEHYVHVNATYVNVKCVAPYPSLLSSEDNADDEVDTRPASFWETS

In the case of CS(=O)(=O)N[C@@H]1CCCC[C@H]1Nc1nc(Nc2ccc3c(c2)CCC(N2CCOCC2)CC3)ncc1Cl (stereo partly drawn) [Example 179, N-{(1R,2R)-2-[5-Chloro-2-(7-morpholin-4-yl-6,7,8,9-tetrahydro-5H-benzocyclohepten-2-ylamino)-pyrimidin-4-ylamino]-cyclohexyl}-methanesulfonamide], the IC50 [1, 3] is reported as 0.1 to 1 µM and the IC50 [2, 4] is reported as < 0.1 µM.
For O=C1CCCc2ccc(Nc3ncc(Cl)c(Nc4c(F)cccc4OC4CCOCC4)n3)cc2N1 [Example 1281, 8-{5-Chloro-4-[2-fluoro-6-(tetrahydro-pyran-4-yloxy)-phenylamino]-pyrimidin-2-ylamino}-1,3,4,5-tetrahydro-1-benzazepin-2-one], the IC50 [1, 5] was 1 to 10 µM and the IC50 [2, 6] was 0.1 to 1 µM.
With CCN(CCO)Cc1cc(Nc2nc(Nc3ccc4c(c3OC)CCC(N3CCOCC3)CC4)ncc2Cl)ccc1F (centres unmarked) [Example 740, 2-([5-[5-Chloro-2-(1-methoxy-7-morpholin-4-yl-6,7,8,9-tetrahydro-5H-benzocyclohepten-2-ylamino)-pyrimidin-4-ylamino]-2-fluoro-benzyl}-ethylamino)-ethanol] the IC50 [1, 7] was > 10 µM and the IC50 [2, 8] was < 0.1 µM.
For CCN1C(=O)CCCc2cc(Nc3ncc(Cl)c(N[C@@H]4[C@H]5CC[C@H](C5)[C@@H]4C(N)=O)n3)c(OC)cc21 (relative stereo) [Example 136, (2-exo,3-exo)-3-[5-Chloro-2-(1-ethyl-8-methoxy-2-oxo-2,3,4,5-tetrahydro-1H-benzo[b]azepin-7-ylamino)-pyrimidin-4-ylamino]-bicyclo[2.2.1]heptane-2-carboxylic acid amide], the IC50 [1, 3] was > 10 µM and the IC50 [2, 4] was < 0.1 µM.
CS(=O)(=O)N1CCc2ccc(Nc3ncc(Cl)c(NC4C5C=CC(C5)C4C(N)=O)n3)cc2CC1 (stereo not drawn) [Example 321, (2-exo, 3-exo)-3-[5-Chloro-2-(3-methanesulfonyl-2,3,4,5-tetrahydro-1H-benzo[d]azepin-7-ylamino)-pyrimidin-4-ylamino]-bicyclo[2.2.1]hept-5-ene-2-carboxylic acid amide] was tested, and the IC50 [1, 3] was 0.1 to 1 µM and the IC50 [2, 4] was < 0.1 µM.
In the case of CNC(=O)c1ccc([N+](=O)[O-])cc1Nc1nc(Nc2ccc3c(c2)C(C)(C)CCC(=O)N3)ncc1Cl [Example 1235, 2-[5-Chloro-2-(5,5-dimethyl-2-oxo-2,3,4,5-tetrahydro-1H-1-benzazepin-7-ylamino)-pyrimidin-4-ylamino]-N-methyl-4-nitro-benzamide], the IC50 [1, 5] is reported as 0.1 to 1 µM and the IC50 [2, 6] is reported as < 0.1 µM.
COCCN1CCc2ccc(Nc3ncc(Cl)c(N[C@@H]4CCCC[C@H]4N)n3)cc2CC1 [Example 451, N*4*-((1R,2R)-2-Amino-cyclohexyl)-5-chloro-N*2*-[3-(2-methoxy-ethyl)-2,3,4,5-tetrahydro-1H-benzo[d]azepin-7-yl]-pyrimidine-2,4-diamine] was tested, and the IC50 [1, 3] was 1 to 10 µM and the IC50 [2, 4] was 0.1 to 1 µM.
With CNC(=O)C1C2C=CC(C2)C1Nc1nc(Nc2ccc3c(c2)CCC(N2CCOCC2)CC3)ncc1Cl (stereo not drawn) [Example 624, (2-exo-3-exo)-3-[5-Chloro-2-(7-morpholin-4-yl-6,7,8,9-tetrahydro-5H-benzocyclohepten-2-ylamino)-pyrimidin-4-ylamino]-bicyclo[2.2.1]hept-5-ene-2-carboxylic acid methylamide] the IC50 [1, 7] was 0.1 to 1 µM and the IC50 [2, 8] was < 0.1 µM.
CNC(=O)c1ccccc1Nc1nc(Nc2ccc3c(c2)N(C(C)=O)CCCO3)ncc1Cl [Example 1703, 2-[2-(9-Acetyl-6,7,8,9-tetrahydro-5-oxa-9-aza-benzocyclohepten-2-ylamino)-5-chloro-pyrimidin-4-ylamino]-N-methyl-benzamide] was tested, and the IC50 [1, 9] was < 0.1 µM and the IC50 [2, 10] was < 0.1 µM.
CCN1C(=O)CCCc2ccc(Nc3ncc(Cl)c(Nc4ccc(CC#N)cc4)n3)cc21 [Example 1225, {4-[5-Chloro-2-(1-ethyl-2-oxo-2,3,4,5-tetrahydro-1H-1-benzazepin-8-ylamino)-pyrimidin-4-ylamino]-phenyl}-acetonitrile] showed an IC50 [1, 5] of 1 to 10 µM and an IC50 [2, 6] of 0.1 to 1 µM.
With CCN1CC2CCC(C1)c1cc(Nc3ncc(Cl)c(Nc4ccccc4S(=O)(=O)NC)n3)ccc12 (centres unmarked) [Example 272, 2-[5-Chloro-2-(10-ethyl-10-aza-tricyclo[6.3.2.0*2,7*]trideca-2,4,6-trien-4-ylamino)-pyrimidin-4-ylamino]-N-methyl-benzenesulfonamide] the IC50 [1, 3] was 0.1 to 1 µM and the IC50 [2, 4] was < 0.1 µM.
CNC(=O)c1ccccc1Nc1nc(Nc2cc3c(cc2OC)CCOC(=O)N3C)ncc1Cl [Example 1511, 2-[5-Chloro-2-(2-methoxy-5-methyl-6-oxo-5,6,8,9-tetrahydro-7-oxa-5-aza-benzocyclohepten-3-ylamino)-pyrimidin-4-ylamino]-N-methyl-benzamide] was tested, and the IC50 [1, 9] was 1 to 10 µM and the IC50 [2, 10] was < 0.1 µM.
COCCOC(=O)C1[C@@H]2C=C[C@@H](C2)[C@H]1Nc1nc(Nc2ccc3c(c2OC)CC[C@@H](N2CCOCC2)CC3)ncc1Cl (single isomer, unassigned) [Example 904] was tested, and the IC50 [1, 7] was > 10 µM and the IC50 [2, 8] was 1 to 10 µM.
Work on C#CCNC(=O)c1cccc(F)c1Nc1nc(Nc2ccc3c(c2)OCCCN3C(=O)OC(C)C)ncc1Cl [Example 1433, 3-[5-Chloro-4-(2-fluoro-6-prop-2-ynylcarbamoyl-phenylamino)-pyrimidin-2-ylamino]-7,8-dihydro-6H-5-oxa-9-aza-benzocycloheptene-9-carboxylic acid isopropyl ester] yielded an IC50 [1, 5] of 0.1 to 1 µM and an IC50 [2, 6] of 0.1 to 1 µM.
CCN1CCN(CC)c2cc(Nc3ncc(Cl)c(Nc4ccccc4C(=O)NC)n3)ccc2C1=O [Example 418, 2-[5-Chloro-2-(1,4-diethyl-5-oxo-2,3,4,5-tetrahydro-1H-benzo[e][1,4]diazepin-8-ylamino)-pyrimidin-4-ylamino]-N-methylbenzamide] was tested, and the IC50 [1, 3] was < 0.1 µM and the IC50 [2, 4] was < 0.1 µM.
In the case of COc1cc2c(cc1Nc1ncc(Cl)c(Nc3ccc(N4CCOCC4)cc3OC)n1)N(C)CCNC2 [Example 493, 5-Chloro-N*2*-(7-methoxy-1-methyl-2,3,4,5-tetrahydro-1H-benzo[e][1,4]diazepin-8-yl)-N*4*-(2-methoxy-4-morpholin-4-yl-phenyl)-pyrimidine-2,4-diamine], the IC50 [1, 3] is reported as > 10 µM and the IC50 [2, 4] is reported as < 0.1 µM.
Cn1ccnc1-c1ccccc1Nc1nc(Nc2cccc3c2OCCCC3(C)C)ncc1Cl [Example 879, 5-Chloro-N*2*-(5,5-dimethyl-2,3,4,5-tetrahydro-benzo[b]oxepin-9-yl)-N*4*-[2-(1-methyl-1H-imidazol-2-yl)-phenyl]-pyrimidine-2,4-diamine] was tested, and the IC50 [1, 7] was > 10 µM and the IC50 [2, 8] was 0.1 to 1 µM.
CN1CCNCc2cc(OCC(F)(F)F)c(Nc3ncc(Cl)c(N[C@@H]4CCCC[C@H]4NS(C)(=O)=O)n3)cc21 [Example 497, N-((1R,2R)-2-{5-Chloro-2-[1-methyl-7-(2,2,2-trifluoro-ethoxy)-2,3,4,5-tetrahydro-1H-benzo[e][1,4]diazepin-8-ylamino]-pyrimidin-4-ylamino}-cyclohexyl)-methanesulfonamide] was tested, and the IC50 [1, 3] was 1 to 10 µM and the IC50 [2, 4] was 0.1 to 1 µM.
In the case of CNC(=O)c1cccc(F)c1Nc1nc(Nc2ccc3c(c2)OCCCN3C(=O)OC2CCCN(C)C2)ncc1Cl (centres unmarked) [Example 1438, 3-[5-Chloro-4-(2-fluoro-6-methylcarbamoyl-phenylamino)-pyrimidin-2-ylamino]-7,8-dihydro-6H-5-oxa-9-aza-benzocycloheptene-9-carboxylic acid 1-methyl-piperidin-3-yl ester], the IC50 [1, 9] is reported as < 0.1 µM and the IC50 [2, 10] is reported as < 0.1 µM.
